The text below walks through data of BindingDB's records for doi:10.1016/j.bioorg.2007.03.001 (Burnham Institute For Medical Research, 2007).

In the test the target is Isoform Bcl-X(L) of Bcl-2-like protein 1 (Bcl-xL) (Homo sapiens, UniProt Q07817). Kind of test: DELFIA Assay. The source says: In order to figure whether these compounds were capable of displacing the interactions between Bci-XL and it's pro-apoptotic counterparts, it was testes in a heterogeneous lanthanide-based assay that have recently developed based on the DELFIA (dissociation enhanced lanthanide fluoro-immuno assay)technology (Perkin-Elmer).
Chain of Isoform Bcl-X(L) of Bcl-2-like protein 1 (Bcl-xL) (Q07817 whole entry G70A, canonical isoform): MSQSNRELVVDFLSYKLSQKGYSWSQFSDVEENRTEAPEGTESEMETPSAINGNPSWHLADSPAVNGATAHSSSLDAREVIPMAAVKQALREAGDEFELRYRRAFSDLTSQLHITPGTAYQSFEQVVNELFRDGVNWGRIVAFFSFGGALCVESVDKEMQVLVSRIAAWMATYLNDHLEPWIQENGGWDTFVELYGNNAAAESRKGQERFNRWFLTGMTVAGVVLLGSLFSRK

`Cc1csc(NC(=O)c2ccccc2C(=O)O)c1-c1nc2ccccc2s1` [BI-21C4]: the IC50 was 3.3 µM.

Regarding `N#Cc1c(-c2ccc3c(c2)OCO3)cc(-c2ccccc2O)[nH]c1=O` [BI-21C5], the IC50 is 5.1 µM and the Kd turned out to be 19.8 µM.

Compound `O=C(O)c1ccccc1C(=O)c1ccc(Sc2ccc(Cl)cc2)c([N+](=O)[O-])c1` [BI-21C6] had an IC50 of 0.5 µM.

`O=C(O)c1ccccc1C(=O)c1ccc(Sc2ccccc2)c([N+](=O)[O-])c1` [BI-21C7] displayed an IC50 of 5.7 µM.

One may read the IC50 as the midpoint of a concentration-inhibition curve. Higher therefore signals lower potency. What is called Kd is the concentration at which binding is half-saturated.
